The data set in a line: Dynamic Vapor Sorption (DVS), two sorption-desorption cycles 0-95-0% RH. Conditions: for phase change from anhydrate to dihydrate, significant change in moisture (sorption curves): DVS sorption cycles. The format is physicochemical. Here is the method:
Approximately 2-16 mg of the sample was weighed into a metal receptacle, which was then released of static electricity. The metal receptacle was positioned in a Surface Measurements System Ltd DVS Advantage instrument. The sample was subjected to two consecutive sorption-desorption cycles, each running from 0-95-0% relative humidity (% RH). One cycle consisted of 21 steps, those between 0-90% RH were taken in 10% RH each. At each stage the following equilibrium criteria was used: dm/dt over 5 minutes <0,002% and the minimum and maximum time at each stage were 10 and 360 min respectively.

The structures appear in SMILES notation.

For the compound `CCCCC1(CCCC)CN(c2ccccc2)c2cc(SC)c(OCC(=O)N[C@@H](C(=O)NCC(=O)O)c3ccccc3)cc2S(=O)(=O)C1` [crystal modification C, N-{(2R)-2-[({[3,3-dibutyl-7-(methylthio)-1,1-dioxido-5-phenyl-2,3,4,5-tetrahydro-1,5-benzothiazepin-8-yl]oxy}acetyl)amino]-2-phenylethanolyl}-glycine], the “phase change from anhydrate to dihydrate, significant change in moisture (sorption curves)” value (listed as C) is 60-70 % RH.
In the case of `CCCCC1(CCCC)CN(c2ccccc2)c2cc(SC)c(OCC(=O)N[C@@H](C(=O)NCC(=O)O)c3ccccc3)cc2S(=O)(=O)C1` [crystal modification F, N-{(2R)-2-[({[3,3-dibutyl-7-(methylthio)-1,1-dioxido-5-phenyl-2,3,4,5-tetrahydro-1,5-benzothiazepin-8-yl]oxy}acetyl)amino]-2-phenylethanolyl}-glycine], for the setting “weight % water versus % RH, two consecutive DVS cycles, FIG. 10”, the “moisture uptake (DVS isotherm)” value is given as “linear function of % RH”.
Consider `CCCCC1(CCCC)CN(c2ccccc2)c2cc(SC)c(OCC(=O)N[C@@H](C(=O)NCC(=O)O)c3ccccc3)cc2S(=O)(=O)C1` [crystal modification L, N-{(2R)-2-[({[3,3-dibutyl-7-(methylthio)-1,1-dioxido-5-phenyl-2,3,4,5-tetrahydro-1,5-benzothiazepin-8-yl]oxy}acetyl)amino]-2-phenylethanolyl}-glycine], for which the “phase change from anhydrate to dihydrate, significant change in moisture (sorption curves)” value (listed as L) is recorded as 40-50 % RH.
For `CCCCC1(CCCC)CN(c2ccccc2)c2cc(SC)c(OCC(=O)N[C@@H](C(=O)NCC(=O)O)c3ccccc3)cc2S(=O)(=O)C1` [crystal modification N, N-{(2R)-2-[({[3,3-dibutyl-7-(methylthio)-1,1-dioxido-5-phenyl-2,3,4,5-tetrahydro-1,5-benzothiazepin-8-yl]oxy}acetyl)amino]-2-phenylethanolyl}-glycine], the “moisture amount where the four DVS curves coincide (dihydrate)” value (DVS, sorption and desorption curves of two cycles) is reported as “around 5 % w/w”.

For the origin of these results see patent US20190177286A1, “CRYSTAL MODIFICATIONS OF ELOBIXIBAT” (Elobix AB, priority 2014, published 2019).
